Laboratory results reported in ChEMBL document CHEMBL1201862, “PubChem BioAssay data set” (2004).
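Five compound concentrations were applied to cells in 96-well plates for 48 hours; endpoints were derived by simple linear interpolation of the resulting dose-response curve. Abbreviation: GI50, concentration required for 50% inhibition of growth.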 Calls of active or inactive are those of the source. Rule as the data show it: active = GI50 up to about 1.1 µM and inactive = higher.

Experiments:
Assay in all cases: DTP human tumour cell line panel, 48 h
BT-549 = tested on: BT-549
SK-MEL-2 = tested on: SK-MEL-2
HOP-62 = tested on: HOP-62
OVCAR-3 = tested on: OVCAR-3
MOLT-4 = tested on: MOLT-4
U-251 = tested on: U-251
HCC 2998 = tested on: HCC 2998
TK-10 = tested on: TK-10
Malme-3M = tested on: Malme-3M
SNB-19 = tested on: SNB-19
HT-29 = tested on: HT-29
SN12C = tested on: SN12C
SF-295 = tested on: SF-295
MDA-MB-435 = tested on: MDA-MB-435
MDA-MB-231 = tested on: MDA-MB-231
SW-620 = tested on: SW-620
SR = tested on: SR
MDA-N = tested on: MDA-N
SNB-75 = tested on: SNB-75
RPMI-8226 = tested on: RPMI-8226
NCI-H522 = tested on: NCI-H522
A549 = tested on: A549
COLO 205 = tested on: COLO 205
NCI-H460 = tested on: NCI-H460
T47D = tested on: T47D
NCI-H23 = tested on: NCI-H23
K562 = tested on: K562
NCI/ADR-RES = tested on: NCI/ADR-RES
KM12 = tested on: KM12
SK-MEL-5 = tested on: SK-MEL-5
HL-60 = tested on: HL-60
HOP-92 = tested on: HOP-92
NCI-H226 = tested on: NCI-H226
786-0 = tested on: 786-0
IGROV-1 = tested on: IGROV-1
HCT-116 = tested on: HCT-116
CAKI-1 = tested on: CAKI-1
M14 = tested on: M14
SK-OV-3 = tested on: SK-OV-3
ACHN = tested on: ACHN
DU-145 = tested on: DU-145
LOX IMVI = tested on: LOX IMVI
EKVX = tested on: EKVX
OVCAR-5 = tested on: OVCAR-5
SK-MEL-28 = tested on: SK-MEL-28
MCF7 = tested on: MCF7
OVCAR-4 = tested on: OVCAR-4
UACC-62 = tested on: UACC-62
PC-3 = tested on: PC-3
UACC-257 = tested on: UACC-257
A498 = tested on: A498
Hs-578T = tested on: Hs-578T
OVCAR-8 = tested on: OVCAR-8
CCRF-CEM = tested on: CCRF-CEM
HCT-15 = tested on: HCT-15
RXF 393 = tested on: RXF 393
UO-31 = tested on: UO-31
SF-539 = tested on: SF-539
SF-268 = tested on: SF-268

CCOC(=O)c1sc2nc(SC)nc3c2c1N=CN3c1ccc(Br)cc1
GI50 (BT-549): > 100 µM (inactive) | GI50 (SK-MEL-2): > 100 µM (inactive) | GI50 (HOP-62): 21.7 µM (inactive) | GI50 (OVCAR-3): 24.8 µM (inactive) | GI50 (MOLT-4): > 100 µM (inactive) | GI50 (U-251): 76.2 µM (inactive) | GI50 (HCC 2998): > 100 µM (inactive) | GI50 (TK-10): > 100 µM (inactive) | GI50 (Malme-3M): > 100 µM (inactive) | GI50 (SNB-19): > 100 µM (inactive) | GI50 (HT-29): > 100 µM (inactive) | GI50 (SN12C): > 100 µM (inactive) | GI50 (SF-295): > 100 µM (inactive) | GI50 (MDA-MB-435): > 100 µM (inactive) | GI50 (MDA-MB-231): > 100 µM (inactive) | GI50 (SW-620): > 100 µM (inactive) | GI50 (SR): > 100 µM (inactive) | GI50 (MDA-N): > 100 µM (inactive) | GI50 (SNB-75): 38.2 µM (inactive) | GI50 (RPMI-8226): > 100 µM (inactive) | GI50 (NCI-H522): > 100 µM (inactive) | GI50 (A549): > 100 µM (inactive) | GI50 (COLO 205): > 100 µM (inactive) | GI50 (NCI-H460): > 100 µM (inactive) | GI50 (T47D): > 100 µM (inactive) | GI50 (NCI-H23): > 100 µM (inactive) | GI50 (K562): > 100 µM (inactive) | GI50 (NCI/ADR-RES): > 100 µM (inactive) | GI50 (KM12): > 100 µM (inactive) | GI50 (SK-MEL-5): > 100 µM (inactive) | GI50 (HL-60): > 100 µM (inactive) | GI50 (HOP-92): > 100 µM (inactive) | GI50 (NCI-H226): > 100 µM (inactive) | GI50 (786-0): 40.1 µM (inactive) | GI50 (IGROV-1): > 100 µM (inactive) | GI50 (HCT-116): > 100 µM (inactive) | GI50 (CAKI-1): 98.9 µM (inactive) | GI50 (M14): > 100 µM (inactive) | GI50 (SK-OV-3): > 100 µM (inactive) | GI50 (ACHN): > 100 µM (inactive) | GI50 (DU-145): > 100 µM (inactive) | GI50 (LOX IMVI): > 100 µM (inactive) | GI50 (EKVX): > 100 µM (inactive) | GI50 (OVCAR-5): > 100 µM (inactive) | GI50 (SK-MEL-28): > 100 µM (inactive) | GI50 (MCF7): > 100 µM (inactive) | GI50 (OVCAR-4): > 100 µM (inactive) | GI50 (UACC-62): > 100 µM (inactive) | GI50 (PC-3): > 100 µM (inactive) | GI50 (UACC-257): > 100 µM (inactive) | GI50 (A498): 25.2 µM (inactive) | GI50 (Hs-578T): 23.1 µM (inactive) | GI50 (OVCAR-8): > 100 µM (inactive) | GI50 (CCRF-CEM): > 100 µM (inactive) | GI50 (HCT-15): > 100 µM | GI50 (RXF 393): 25.4 µM (inactive) | GI50 (UO-31): > 100 µM (inactive)

C=C(CO)C(=O)OC1CC(=C)C2CC(O)C(C)C2C2OC(=O)C(=C)C12 (stereo not given)
GI50 (BT-549): 14.9 µM (inactive) | GI50 (SK-MEL-2): 16.1 µM (inactive) | GI50 (HOP-62): 19.4 µM (inactive) | GI50 (OVCAR-3): 16 µM (inactive) | GI50 (MOLT-4): 25.2 µM (inactive) | GI50 (U-251): 26.7 µM (inactive) | GI50 (SF-539): 18 µM (inactive) | GI50 (HCC 2998): 21.7 µM (inactive) | GI50 (TK-10): 16.3 µM (inactive) | GI50 (Malme-3M): 21.3 µM (inactive) | GI50 (SNB-19): 22.9 µM (inactive) | GI50 (HT-29): 24.7 µM (inactive) | GI50 (SN12C): 18.2 µM (inactive) | GI50 (SF-295): 19.4 µM (inactive) | GI50 (MDA-MB-435): 21.2 µM (inactive) | GI50 (MDA-MB-231): 20 µM (inactive) | GI50 (SW-620): 22.9 µM (inactive) | GI50 (SR): 19.3 µM (inactive) | GI50 (MDA-N): 19.3 µM (inactive) | GI50 (SNB-75): 19 µM (inactive) | GI50 (RPMI-8226): 24.5 µM (inactive) | GI50 (NCI-H522): 26.3 µM (inactive) | GI50 (A549): 28.8 µM (inactive) | GI50 (COLO 205): 34.2 µM (inactive) | GI50 (NCI-H460): 35.8 µM (inactive) | GI50 (SF-268): 20.7 µM (inactive) | GI50 (T47D): 49.4 µM (inactive) | GI50 (NCI-H23): > 100 µM (inactive) | GI50 (K562): 31.3 µM (inactive) | GI50 (NCI/ADR-RES): 44.7 µM (inactive) | GI50 (KM12): 18 µM (inactive) | GI50 (SK-MEL-5): 24.3 µM (inactive) | GI50 (HL-60): 25.8 µM (inactive) | GI50 (HOP-92): 32.4 µM (inactive) | GI50 (786-0): 37.3 µM (inactive) | GI50 (IGROV-1): 18.9 µM (inactive) | GI50 (HCT-116): 33.2 µM (inactive) | GI50 (CAKI-1): 19.3 µM (inactive) | GI50 (M14): 17.3 µM (inactive) | GI50 (SK-OV-3): 30.4 µM (inactive) | GI50 (ACHN): 18.4 µM (inactive) | GI50 (DU-145): 42.5 µM (inactive) | GI50 (LOX IMVI): 29.9 µM (inactive) | GI50 (EKVX): 40.9 µM (inactive) | GI50 (OVCAR-5): 30.9 µM (inactive) | GI50 (SK-MEL-28): 24.3 µM (inactive) | GI50 (MCF7): 18.3 µM (inactive) | GI50 (OVCAR-4): 61.1 µM (inactive) | GI50 (UACC-62): 16.6 µM (inactive) | GI50 (PC-3): 31.6 µM (inactive) | GI50 (UACC-257): 15.6 µM (inactive) | GI50 (A498): 39.6 µM (inactive) | GI50 (Hs-578T): 18.4 µM (inactive) | GI50 (OVCAR-8): 27.3 µM (inactive) | GI50 (CCRF-CEM): 31.2 µM (inactive) | GI50 (HCT-15): 19.1 µM | GI50 (RXF 393): 20 µM (inactive) | GI50 (UO-31): 16.2 µM (inactive)
